Literature values, collected in patent US20230235017A1, “A DRUG SCREENING PLATFORM FOR ENDOSOMAL ENHANCERS TO TREAT ALZHEIMER'S DISEASE” (Aarhus Universitet, priority 2020, published 2023).

System: endosomal activity
Conditions: shown in the literature (Mecozzi 2014); cited from earlier work

For `N=C(N)SCc1ccc(CSC(=N)N)s1` [R55], the “effect on endosomal activity” value is listed as “have an effect on endosomal activity”.
